System: mast cells
Experiment: Active anaphylaxis method to evaluate mast cell count
Type: in vivo, rat
Details: sensitized rats

`C[C@]12C=CC(=O)C=C1CC[C@@H]1[C@@H]2[C@@H](O)C[C@@]2(C)[C@H]1CC[C@]2(O)C(=O)CO` [Standard, Prednisolone] was tested, and the “Degranulation (% mean +/- SEM) of mast cells, 21st day sacrifice, central zone” value (no treatment day 14 to 21, 21st day sacrifice, central zone) was 29.4 ± 7.2 %, the “Degranulation (% mean +/- SEM) of mast cells, 21st day sacrifice, peripheral zone” value (no treatment day 14 to 21, 21st day sacrifice, peripheral zone) was 37.51 ± 8.3 % and the “Degranulation (% mean +/- SEM) of mast cells, 13th day sacrifice, central zone” value (oral treatment day 5 to 13, 13th day sacrifice, central zone) was 8.4 ± 2.0 %. For the same compound, the “Degranulation (% mean +/- SEM) of mast cells, 13th day sacrifice, peripheral zone” value (oral treatment day 5 to 13, 13th day sacrifice, peripheral zone) was 8.7 ± 1.621 %.

Source: patent US20030096020A1, “Novel herbal composition for the management of bronchial asthma and a process of manufacturing the same” (priority 2001, published 2003)
